Results published in patent US6559125B1, “Polyamide-alkylator conjugates and related products and method” (priority 2000, dated 2003).

Columns and labels:
[1] = tested on: match binding sites (5′-WGCWGCW-3′) on a 241 bp restriction fragment derived from the HIV-1 promoter region; experiment: Quantitative DNase I footprint titration; conditions: for equilibrium association constant Ka: 22° C., pH 7.0
Method: Jones, K. A. & Peterlin, B. M. (1994), Annual Review of Biochemistry 63, 717-743. Left, storage phosphor autodiograms of 8% denaturing polyacrylamide gels used to separate the fragments generated by DNase I digestion. All reactions contained 20,000 cpm restriction fragment, 10 mM Tris.HCl (pH 7.0), 10 mM KCl, 10 MM MgCl2 and 5 mM CaCl and were performed at 22° C. Lane 1, intact DNA; lane 2, A-specific reaction; lane 3, G-specific reaction; lane 4, DNase I standard; lanes 5-17, 1 pM, 2 pM, 5 pM, 10 pM, 20 pM, 50 pM, 100 pM, 200 pM, 500 pM, 1 nM, 2 nM, 5 nM, 10 nM, respectively. The 5′-AGCTGCT-3′ (A), 5′-TGCAGCA-3′ (B), and 5′-TGCTGCT-3′ (E) match sites are shown in boxes on the right side of the autoradiogram (SEQ ID NO:4).
FIG. 5(b) depicts data from quantitative DNase I footprint titration experiments for ImPy-β-ImPy-(R)^CHL(OH)γ-ImPy-βImPy-β-Dp (3) binding to the 5′-AGCTGCT-3′ (A) and 5′-TGCAGCA-3′ sites (B). θnorm points were obtained using storage phosphor autoradiography and processed as described in the experimental section The data for the binding of 3 to 5′-AGCTGCT-3′ is indicated by red circles and binding to 5′-TGCAGCA-3′ by blue circles. The solid curves are best-fit Langmuir binding titration isotherms obtained from a nonlinear least-squares algorithm eq 2 (n=1).
All reactions were executed in a total volume of 400 μl. […]
Data from the footprint titration gels were obtained using a Molecular Dynamics 400S PhosphorImager followed by quantitation using ImageQuant software (Molecular Dynamics). […] The apparent fractional occupancy (θapp) of the sites were calculated using the equation: [formula] […]
where [L]tot is the total polyamide concentration, Ka is the equilibrium association constant, and θmin and θmax are the experimentally determined site saturation values when the site is unoccupied or saturated, respectively. […]

HIV = conditions: cell culture; cited from earlier work
[2] = tested on: match binding sites (5′-WGCWGCW-3′) on a 241 bp restriction fragment derived from the HIV-1 promoter region; conditions: sequence 5′-WGCWGCW-3′ in the HIV promoter; literature value; cited from earlier work
DNA = conditions: from previous reports; cited from earlier work
[3] = water, pH 7.5, 37° C.; cited from earlier work

In the case of “ImPy-β-ImPy-(R)^CHL(OH)γ-ImPy-β-ImPy-β-Dp [compound 3]”, the “equilibrium association constant Ka” value ([1]; match site 5′-AGCTGCT-3′) is reported as 1.6±0.7×10^10 M^−1, the “equilibrium association constant Ka” value ([1]; match site 5′-TGCAGCA-3′) is reported as 1.3±0.7×10^10 M^−1 and the “affinities for double base pair mismatch sites, fold lower than for the match sites” value ([1]; mismatch sites 5′-TGTCGCC-3′ and 5′-AGCAGCTC-3′) is reported as greater than 100 fold.
For “ImPy-β-ImPy-γ-ImPy-β-ImPy-β-Dp [polyamide 1]”, the “inhibition of HIV replication” value (HIV) is given as “inhbit HIV replication” and the “binding affinity Ka of unsubstituted polyamide” value [2] is given as 2e+10 M⁻¹.
In the case of “ImImPyPy-(R)^H^2^Nγ-ImPyPyPy-β-Dp [polyamide 1′]”, the binding affinity (DNA) is given as “subnanomolar”.
In the case of `O=C(O)CCCc1ccc(N(CCCl)CCCl)cc1` [chlorambucil, 4-[bis(2-chloroethyl)amino]benzene butanoic acid], the “half life for hydrolysis of the bis(dichloroethylamino)benzene moiety” value [3] is listed as “approximately 1.3 hours”.
